Data set [1] deals with Prostaglandin G/H synthase 1 (Homo sapiens, UniProt P23219). The data set can be described thus: Inhibition of COX1 in human whole blood assessed as thromboxane B2 production by RIA. In kind it is tissue-based.
The species entered for data set [2] is Mus musculus. The experiment in a line: Toxicity in Swiss mouse assessed as number of falls in 30 seconds after 45 mins by rotarod test. To be noted: in vivo, 0.75 h. In kind it is organism-based. Background: In the rotarod test animals must keep their balance on a rotating rod.
For data set [3], the system named is Rattus norvegicus. The experiment in a line: Antiinflammatory activity against carrageenan-induced paw edema rat inflammatory model assessed as paw pressure at 10 mg/kg, po after 120 mins. The format is functional. For orientation: In the carrageenan paw model, swelling and tenderness develop within hours.
Data set [4] is filed under the species Mus musculus. The experiment in a line: Toxicity in Swiss mouse assessed as number of falls in 30 seconds after 30 mins by rotarod test. In kind it is organism-based. The note with it: in vivo, 0.5 h.
Data set [5] addresses T1, Prostaglandin G/H synthase 2 (Mus musculus, UniProt Q05769).
T1 sequence (Q05769 whole entry): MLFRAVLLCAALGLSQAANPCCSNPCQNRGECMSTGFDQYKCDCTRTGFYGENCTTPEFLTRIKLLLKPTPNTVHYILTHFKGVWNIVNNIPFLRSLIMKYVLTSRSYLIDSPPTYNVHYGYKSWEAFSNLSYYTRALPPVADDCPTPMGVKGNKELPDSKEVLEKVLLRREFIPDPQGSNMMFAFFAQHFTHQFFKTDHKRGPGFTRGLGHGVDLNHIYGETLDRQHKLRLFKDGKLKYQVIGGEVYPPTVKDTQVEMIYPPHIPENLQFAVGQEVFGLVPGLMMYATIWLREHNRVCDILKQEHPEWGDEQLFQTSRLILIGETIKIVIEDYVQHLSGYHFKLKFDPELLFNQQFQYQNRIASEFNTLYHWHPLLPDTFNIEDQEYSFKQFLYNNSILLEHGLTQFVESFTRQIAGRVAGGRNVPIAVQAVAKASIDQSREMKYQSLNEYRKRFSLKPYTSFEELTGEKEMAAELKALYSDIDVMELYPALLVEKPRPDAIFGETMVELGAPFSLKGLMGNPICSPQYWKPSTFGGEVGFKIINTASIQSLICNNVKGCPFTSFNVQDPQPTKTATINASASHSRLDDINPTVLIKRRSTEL
Description: Inhibition of COX2-dependent PGE2 production in LPS-stimulated mouse J774 cells by RIA

The species named for data set [6] is Rattus norvegicus. The data set can be described thus: Analgesic activity against zymosan-induced hyperalgesia in rat assessed maximum effect measured up to 2 hrs.
Data set [7] in a line: Oral bioavailability in Sprague-Dawley rat at 10 mg/kg. The format is ADME, organism-based. To be noted: in vivo.
Data set [8] deals with Rattus norvegicus. The experiment in a line: Antiinflammatory activity against carrageenan-induced paw edema rat inflammatory model assessed as suppression of paw edema at 10 mg/kg, po after 60 mins. The format is functional.
Data set [9] in a line: Clearance in Sprague-Dawley rat at 10 mg/kg, iv. To be noted: in vivo. In kind it is ADME, organism-based. On the set-up: dose 10 mg/kg, route intravenous.
Data set [10] is described as follows: Metabolic stability in human liver microsomes at 0.1 uM. In kind it is ADME, Microsome. To be noted: read-out: Stability.
In data set [11] the target is T2, Prostaglandin G/H synthase 1 (Mus musculus, UniProt P22437).
T2 sequence (P22437 whole entry): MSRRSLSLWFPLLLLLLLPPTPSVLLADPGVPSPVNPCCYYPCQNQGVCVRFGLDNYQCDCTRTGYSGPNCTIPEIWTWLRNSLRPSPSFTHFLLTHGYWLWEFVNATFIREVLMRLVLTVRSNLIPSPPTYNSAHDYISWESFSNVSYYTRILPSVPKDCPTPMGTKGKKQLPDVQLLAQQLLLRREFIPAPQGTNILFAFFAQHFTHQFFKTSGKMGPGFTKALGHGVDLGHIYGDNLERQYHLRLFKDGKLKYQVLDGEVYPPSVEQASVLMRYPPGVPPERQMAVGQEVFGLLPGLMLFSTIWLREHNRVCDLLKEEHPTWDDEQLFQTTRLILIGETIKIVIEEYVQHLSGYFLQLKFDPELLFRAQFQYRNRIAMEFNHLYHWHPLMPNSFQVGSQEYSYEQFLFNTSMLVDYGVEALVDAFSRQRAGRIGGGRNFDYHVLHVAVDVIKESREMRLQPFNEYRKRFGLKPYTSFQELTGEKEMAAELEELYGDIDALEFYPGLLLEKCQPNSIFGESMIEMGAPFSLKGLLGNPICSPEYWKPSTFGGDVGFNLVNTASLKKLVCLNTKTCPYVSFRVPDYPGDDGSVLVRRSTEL
Description: Inhibition of COX1-dependent PGE2 production in LPS-stimulated mouse J774 cells by RIA

For data set [12], the species on record is Mus musculus. The data set can be described thus: Toxicity in Swiss mouse assessed as number of falls in 30 seconds after 15 mins by rotarod test. To be noted: in vivo, 0.25 h. In kind it is organism-based.
Data set [13] concerns Rattus norvegicus. The experiment in a line: Antiinflammatory activity against carrageenan-induced paw edema rat inflammatory model assessed as paw pressure at 10 mg/kg, po after 30 mins. In kind it is functional.
For data set [14], the species on record is Rattus norvegicus. The experiment in a line: Analgesic activity against zymosan-induced hyperalgesia in rat assessed maximum effect measured up to 6 hrs.
For data set [15], the species on record is Mus musculus. The experiment in a line: Toxicity in Swiss mouse assessed as number of falls in 30 seconds after 60 mins by rotarod test. The format is organism-based. To be noted: in vivo, 1 h.
A short description of data set [16]: Volume of distribution in Sprague-Dawley rat at 10 mg/kg, iv. In kind it is ADME, organism-based. On the set-up: dose 10 mg/kg, route intravenous. The note with it: in vivo.
Data set [17] is described as follows: Metabolic stability in human liver microsomes at 10 uM. In kind it is ADME, Microsome. The note with it: read-out: Stability.
The test system of data set [18] is Rattus norvegicus. The experiment in a line: Antiinflammatory activity against carrageenan-induced paw edema rat inflammatory model assessed as paw volume at 10 mg/kg, po after 60 mins. In kind it is functional.
Data set [19] relates to Mus musculus. The experiment in a line: Analgesic activity against acetic acid-induced po dosed mouse abdominal constriction assessed as writhing. The note with it: Abdomen.
Data set [20] concerns the target T3, Prostaglandin G/H synthase 2 (Homo sapiens, UniProt P35354).
T3 sequence (P35354 whole entry): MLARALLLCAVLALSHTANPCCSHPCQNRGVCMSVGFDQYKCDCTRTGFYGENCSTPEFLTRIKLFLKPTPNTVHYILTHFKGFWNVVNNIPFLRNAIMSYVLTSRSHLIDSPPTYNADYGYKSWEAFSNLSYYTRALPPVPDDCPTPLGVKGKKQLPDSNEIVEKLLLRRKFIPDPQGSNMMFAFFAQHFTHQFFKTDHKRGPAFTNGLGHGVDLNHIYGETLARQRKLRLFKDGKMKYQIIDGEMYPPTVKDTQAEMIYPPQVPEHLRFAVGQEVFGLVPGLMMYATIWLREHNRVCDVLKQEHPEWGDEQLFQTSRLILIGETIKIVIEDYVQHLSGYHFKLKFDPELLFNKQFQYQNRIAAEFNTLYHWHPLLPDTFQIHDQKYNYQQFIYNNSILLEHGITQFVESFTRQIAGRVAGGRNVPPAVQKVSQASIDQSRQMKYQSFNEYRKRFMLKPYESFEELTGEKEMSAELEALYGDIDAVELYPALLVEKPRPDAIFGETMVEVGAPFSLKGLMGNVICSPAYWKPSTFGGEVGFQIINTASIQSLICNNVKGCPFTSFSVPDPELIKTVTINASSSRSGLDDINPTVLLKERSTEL
The experiment in a line: Inhibition of COX2 in human whole blood assessed as inhibition of LPS-induced PGE2 production by RIA. In kind it is tissue-based.

In data set [21] the test system is Rattus norvegicus. The experiment in a line: Antiinflammatory activity against carrageenan-induced paw edema rat inflammatory model assessed as paw pressure at 10 mg/kg, po after 60 mins. In kind it is functional.
For data set [22], the system named is Rattus norvegicus. The experiment in a line: Rate of blood flow in Sprague-Dawley rat at 10 mg/kg, iv. In kind it is ADME, organism-based. Details: dose 10 mg/kg, route intravenous. To be noted: in vivo.
For data set [23], the system named is Rattus norvegicus. The experiment in a line: Antiinflammatory activity against carrageenan-induced paw edema rat inflammatory model assessed as paw pressure at 20 mg/kg, po after 120 mins. In kind it is functional.
Data set [24] has as its system Rattus norvegicus. The data set can be described thus: Antiinflammatory activity against carrageenan-induced paw edema rat inflammatory model assessed as paw pressure at 20 mg/kg, po after 30 mins. The format is functional.
The subject of data set [25] is Rattus norvegicus. The experiment in a line: Antiinflammatory activity against carrageenan-induced paw edema rat inflammatory model assessed as suppression of paw edema at 20 mg/kg, po after 60 mins. In kind it is functional.
Data set [26] relates to Rattus norvegicus. The experiment in a line: Antiinflammatory activity against carrageenan-induced paw edema rat inflammatory model assessed as paw volume at 10 mg/kg, po after 60 mins.
For data set [27], the system named is Rattus norvegicus. The data set can be described thus: Antiinflammatory activity against carrageenan-induced paw edema rat inflammatory model assessed as paw pressure at 20 mg/kg, po after 60 mins. In kind it is functional.

Where only a bound is given, the exact number is not on record here.

Sequence of Prostaglandin G/H synthase 1 (Homo sapiens, UniProt P23219) (P23219 whole entry): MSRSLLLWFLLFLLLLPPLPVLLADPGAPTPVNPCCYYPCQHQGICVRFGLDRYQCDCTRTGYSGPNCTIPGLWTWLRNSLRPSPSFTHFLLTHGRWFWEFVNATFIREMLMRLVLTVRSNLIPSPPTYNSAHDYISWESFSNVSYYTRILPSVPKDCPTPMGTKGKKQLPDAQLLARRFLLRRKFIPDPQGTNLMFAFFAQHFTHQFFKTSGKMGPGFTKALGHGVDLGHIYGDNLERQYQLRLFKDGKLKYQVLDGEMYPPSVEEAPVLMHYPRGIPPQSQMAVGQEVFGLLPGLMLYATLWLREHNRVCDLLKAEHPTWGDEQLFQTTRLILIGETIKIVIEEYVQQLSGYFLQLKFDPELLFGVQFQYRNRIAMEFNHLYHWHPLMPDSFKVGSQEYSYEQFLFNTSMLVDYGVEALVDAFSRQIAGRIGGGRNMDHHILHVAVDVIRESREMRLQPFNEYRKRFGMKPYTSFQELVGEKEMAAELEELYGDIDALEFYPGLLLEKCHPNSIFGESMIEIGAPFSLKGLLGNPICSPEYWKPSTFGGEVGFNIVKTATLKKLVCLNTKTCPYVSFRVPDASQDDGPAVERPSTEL

The term IC50 denotes the concentration at which inhibition is half-maximal. One may read the bioavailability as the share of a dose that reaches the circulation, judged against a reference dose that is usually intravenous. One may read the clearance as a measure of how efficiently the substance is removed, as volume per time. Low readings indicate inefficient removal, high ones efficient removal. In general, Vd refers to the apparent volume that relates the amount in the body to the concentration in plasma or blood. With `Cc1c(CC(=O)OC(C)C)cc(-c2ccc(S(C)(=O)=O)cc2)n1-c1ccccc1`, the IC50 in data set [1] was 20000 nM; in data set [5], 7.3 nM; in data set [11], more than 100000 nM; in data set [20], 2500 nM. Further, the Activity result in the data set listed under Mus musculus [2] is recorded as “Non-toxic”; with Rattus norvegicus [3], 48.8 g; in the data set listed under Mus musculus [4] it was “Non-toxic”; in the data set filed under Rattus norvegicus [6] it was 75%; in the data set with Rattus norvegicus [8] it was 100%; in the data set listed under Mus musculus [12], “Non-toxic”. The Activity was 56.2 g in the data set with Rattus norvegicus [13]; 70% in the data set listed under Rattus norvegicus [14]; “Non-toxic” in the data set filed under Mus musculus [15]; 1.26 mL in the data set on Rattus norvegicus [18]; “Dose-dependent effect” in the data set with Mus musculus [19]; 51.8 g in the data set on Rattus norvegicus [21]. Moreover, the bioavailability in data set [7] came to 42%. In data set [9], the clearance was 33.3 mL/min. For the same compound, in [10], the remaining at 0.1 µM amounted to 11%. The volume of distribution (Vd) in data set [16] was determined as 5.6 L. Also, in data set [17], the remaining at 10 µM was determined as 1%. For the same compound, in the data set with Rattus norvegicus [22], the LBF is 0.8 L/h.

On to `Cc1ccc(-c2cc(C(F)(F)F)nn2-c2ccc(S(N)(=O)=O)cc2)cc1` [CELECOXIB], for which the Activity with Rattus norvegicus [23] was 55.2 g; in the data set filed under Rattus norvegicus [6] it was 30%; in the data set filed under Rattus norvegicus [14], 35%; in the data set on Rattus norvegicus [24], 56.5 g; with Rattus norvegicus [25], 95.5%; with Rattus norvegicus [26], 1.33 mL. In addition, the Activity with Rattus norvegicus [27] was 58.2 g.
